{"source": "paper PMC5641347", "about": "“Aii810, a Novel Cold-Adapted N-Acylhomoserine Lactonase Discovered in a Metagenome, Can Strongly Attenuate Pseudomonas aeruginosa Virulence Factors and Biofilm Formation” (Frontiers in Microbiology, 2017)", "system": "T1, Aii810", "T1 construct": "E. coli BL21(DE3), Ni-NTA", "test": "p-nitrophenol release at […] nm, Michaelis-Menten fit", "format": "biochemical, uncultured bacterium", "conditions": "20°C, pH 6.5", "data": [{"smiles": "CC(=O)Oc1ccc([N+](=O)[O-])cc1", "note": "[C2, ρ-nitrophenyl acetate]", "values": [{"measurement": "Km", "value": 205, "unit": "µM"}]}]}
